Residue numbers refer to the chain shown, from its start. “Also recorded” adds a separate entry of the source. Where two headings read alike, the source gives them in different places.
Experiments:
WT LCAT = molecular target: T1, WT LCAT (Homo sapiens, UniProt P04180); assay: Differential scanning fluorimetry; type: binding; design: hydrolysis of 4-methylumbelliferyl palmitate (MUP) by full-length LCAT; made in house; host or cells: HEK293F (transient transfection, secreted); details: for Thermal stabilization (DSF): WT LCAT; for Thermal stabilization of WT LCAT (DSF): compound at 10 μM
T1 sequence (P04180 25-440): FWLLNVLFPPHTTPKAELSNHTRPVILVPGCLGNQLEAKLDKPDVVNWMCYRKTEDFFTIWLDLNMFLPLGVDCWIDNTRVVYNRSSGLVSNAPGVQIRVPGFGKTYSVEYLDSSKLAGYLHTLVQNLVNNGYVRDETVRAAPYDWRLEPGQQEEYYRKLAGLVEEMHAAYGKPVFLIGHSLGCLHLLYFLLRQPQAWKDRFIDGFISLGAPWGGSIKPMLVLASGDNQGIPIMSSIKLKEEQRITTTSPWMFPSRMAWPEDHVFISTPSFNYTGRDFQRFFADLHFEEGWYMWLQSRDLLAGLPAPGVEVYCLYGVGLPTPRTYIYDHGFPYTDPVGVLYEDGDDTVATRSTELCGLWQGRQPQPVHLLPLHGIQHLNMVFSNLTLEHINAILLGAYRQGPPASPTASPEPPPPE
Experimental: Tm values were determined using an Applied Biosystems QuantStudio 7 Flex qPCR machine with two replicates performed at least in triplicate. LCAT at 0.05 mg mL^−1 was diluted into reaction buffer containing 5X Sypro Orange in a final volume of 10 μL in 384-well PCR plates. DMSO or compound 1 was added so that all reactions contained 3% DMSO. The reactions were run from 25–95 °C with a ramp rate of 0.03 °C s^−1. Tm values were determined as the derivative using Protein Thermal Shift software. Significance was determined using a one-way analysis of variance followed by Tukey’s multiple comparisons post-test in GraphPad Prism.

LCAT R244H = molecular target: T2, LCAT R244H (Homo sapiens, UniProt P04180, R268H); assay: MUP hydrolysis (esterase) assay; type: biochemical
T2 construct: hydrolysis of 4-methylumbelliferyl palmitate (MUP) by full-length LCAT; made in house; host or cells: HEK293F (transient transfection, secreted)
T2 sequence (P04180 25-440 R268H): T1 sequence (P04180 25-440) with R244H
Experimental: (§1) The lipase activity of LCAT was measured using MUP as a substrate. The assay was performed at room temperature in 0.1 M sodium phosphate buffer, pH 7.4 containing 0.01% Triton X-100. 4 μL of LCAT (6 nM final concentration) were dispensed into a 1536-well Greiner solid black plate. The same volume of assay buffer was dispensed into column 1 and 2 for a no-enzyme control. Then 23 nL DMSO or compounds titrated at 11-point 1:3 dilution series starting at 10 mM were transferred using a pintool. After 15 min incubation, 2 μL MUP (16 μM final concentration) was added to initiate the reaction. The hydrolysis of MUP was monitored using a ViewLux plate reader (excitation 380 nm/emission 450 nm) for 20 min. The fluorescence signal was normalized against no-activator and no-enzyme control after subtraction of background signal (t = 0 min). To plot percent activation, in each assay 100% was set at the rate of LCAT or LCAT variant without compound. The resulting data were fitted to a sigmoidal dose response curve.

LCAT R244A = molecular target: T3, LCAT R244A (Homo sapiens, UniProt P04180, R268A); assay: MUP hydrolysis (esterase) assay; type: biochemical
T3 construct: hydrolysis of 4-methylumbelliferyl palmitate (MUP) by full-length LCAT; made in house; host or cells: HEK293F (transient transfection, secreted)
T3 sequence (P04180 25-440 R268A): T1 sequence (P04180 25-440) with R244A
Experimental: as §1

[1] = compound titrated from 0.04 to 9.5 μM
[2] = compound titrated from 0.04 to 9.5 μM, read-out: MUP assay EC50
[3] = read-out: EC50, MUP esterase assay

| Structure (SMILES) | Thermal stabilization (DSF) (WT LCAT) | Fold activation, MUP esterase assay (LCAT R244H; [1]) | EC50 (LCAT R244H; [2]) | EC50 (LCAT R244H; [3]) | Fold activation, MUP esterase assay (LCAT R244A; [1]) | EC50 (LCAT R244A; [2]) | EC50 (LCAT R244A; [3]) | Thermal stabilization of WT LCAT (DSF) (WT LCAT) | MUP assay EC50 (LCAT R244H; [1]) | MUP assay EC50 (LCAT R244A; [1]) |
| --- | --- | --- | --- | --- | --- | --- | --- | --- | --- | --- |
| N#Cc1cnc(N2CCC(c3n[nH]c4c3C(O)(C(F)(F)F)CC(=O)N4)CC2)cc1C(F)(F)F (centres unmarked) [compound 1, 6-(4-(4-Hydroxy-6-oxo-4-(trifluoromethyl)−4,5,6,7-tetrahydro-1H-pyrazolo[3,4-b]pyridin-3-yl)piperidin-1-yl)−4-(trifluoromethyl)nicotinonitrile] | stabilize | 1.6 ± 0.3 fold | 160 ± 30 nM | ~150 nM | 1.7 ± 0.4 fold | 130 ± 20 nM | ~150 nM |  |  |  |
| O=C1CC(O)(C(F)(F)F)c2c(C3CCN(c4cnc(C(F)(F)F)cn4)CC3)n[nH]c2N1 (centres unmarked) [compound 2, 4-Hydroxy-4-(trifluoromethyl)−3-(1-(5-(trifluoromethyl)pyrazin-2-yl)piperidin-4-yl)−4,5-dihydro-1H-pyrazolo[3,4-b]pyridin-6(7H)-one] | stabilize | 1.8 ± 0.1 fold | 320 ± 30 nM |  | 1.9 ± 0.2 fold | 270 ± 40 nM |  |  |  |  |
| O=C1CC(O)(C(F)(F)F)c2c(ncn2C2CCN(c3cnc(C(F)(F)F)cn3)CC2)N1 (centres unmarked) [compound 3, 7-Hydroxy-7-(trifluoromethyl)−1-(1-(5-(trifluoromethyl)pyrazin-2-yl)piperidin-4-yl)−6,7-dihydro-1H-imidazo[4,5-b]pyridin-5(4H)-one] | stabilize | 1.8 ± 0.1 fold | 470 ± 50 nM |  | 1.9 ± 0.2 fold | 400 ± 30 nM |  |  |  |  |
| O=C1CC(O)(C(F)(F)F)c2c(ncn2C2CCNCC2)N1 (centres unmarked) [compound 6, 7-Hydroxy-1-(piperidin-4-yl)−7-(trifluoromethyl)−6,7-dihydro-1H-imidazo[4,5-b]pyridin-5(4H)-one] |  | no effect |  |  | no effect |  |  | do not stabilize; also recorded: could not thermal stabilize | no effect | no effect |
| O=c1cc(C(F)(F)F)c2c(ncn2C2CCN(c3cnc(C(F)(F)F)cn3)CC2)[nH]1 [compound 8, 7-(trifluoromethyl)−1-(1-(5-(trifluoromethyl)pyrazin-2-yl)piperidin-4-yl)−1H-imidazo[4,5-b]pyridin-5(4H)-one] |  | 2.8 ± 0.6 fold | > 10000 nM |  | 3.2 ± 0.8 fold | > 10000 nM |  | do not stabilize; also recorded: could not thermal stabilize |  |  |
| O=C1CC(O)(C(F)(F)F)c2c(C3CCN(c4cnc(C(F)(F)F)cn4)CC3)noc2N1 (centres unmarked) [compound 9, 4-hydroxy-4-(trifluoromethyl)−3-(1-(5-(trifluoromethyl)pyrazin-2-yl)piperidin-4-yl)−4,5-dihydroisoxazolo[5,4-b]pyridin-6(7H)-one] |  | 1.3 ± 0.06 fold | 7600 ± 1000 nM |  | 1.2 ± 0.1 fold | 6200 ± 800 nM |  | do not stabilize; also recorded: could not thermal stabilize |  |  |

From article PMC6277198, “Molecular basis for activation of lecithin:cholesterol acyltransferase by a compound that increases HDL cholesterol” (eLife, 2018)
